Experimental data published in patent publication US7928140B2, “Benzothiazole PI3 kinase modulators for cancer treatment” (Amgen Inc., priority 2007, dated 2011).

Tests used:
PI3K α = biological target: T1, PI3K α (Homo sapiens, UniProt P42336); assay: In vitro PI3 kinase enzyme assay (alpha), ATP loss, bioluminescence; format: biochemical; conditions: read-out: PI3Kα ATP loss IC50;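 further: purified p110α/p85 heterodimer acting on PtdIns(4,5)P2 at room temperature, remaining ATP read by luminescence, inhibition scaled between compound-free wells with and without enzyme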
T1 construct: Full length p110 subunits of PI3K α, β and δ, N-terminally labeled with polyHis tag; polyHis (N); made in house; host or cells: Sf9 insect cells (baculovirus)

PI3K β = biological target: T2, PI3K β (Homo sapiens, UniProt P42338); assay: In vitro PI3 kinase enzyme assay (beta), ATP loss, bioluminescence; format: biochemical; conditions: read-out: PI3Kβ ATP loss IC50;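 further: purified p110β/p85 heterodimer with PtdIns(4,5)P2 as acceptor, incubated at room temperature, leftover ATP read by luminescence, inhibition scaled to compound-free wells with and without enzyme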
T2 construct: Full length p110 subunits of PI3K α, β and δ, N-terminally labeled with polyHis tag; polyHis (N); made in house; host or cells: Sf9 insect cells (baculovirus)

[1] = system: phosphorylation of Serine 473 in Akt, HCT 116 human colon carcinoma cells; assay: Cell-based phospho-AKT Ser473 assay (MSD sandwich immunoassay, IGF-1 stimulated); conditions: Homo sapiens, HCT-116, HCT 116 cells; read-out: HCT 116 pAKT IC50
Procedure, shortened: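 Akt Ser473 phosphorylation was measured by MSD electrochemiluminescent sandwich immunoassay in lysates of HCT116 cells (16,000 cells/well). Cells received a compound dilution series for 2 h at 37 °C before a 15 min IGF-1 (100 ng/ml) stimulus, with IC50 calculated from the dose-response.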

T1 sequence (P42336 whole entry, species assumed): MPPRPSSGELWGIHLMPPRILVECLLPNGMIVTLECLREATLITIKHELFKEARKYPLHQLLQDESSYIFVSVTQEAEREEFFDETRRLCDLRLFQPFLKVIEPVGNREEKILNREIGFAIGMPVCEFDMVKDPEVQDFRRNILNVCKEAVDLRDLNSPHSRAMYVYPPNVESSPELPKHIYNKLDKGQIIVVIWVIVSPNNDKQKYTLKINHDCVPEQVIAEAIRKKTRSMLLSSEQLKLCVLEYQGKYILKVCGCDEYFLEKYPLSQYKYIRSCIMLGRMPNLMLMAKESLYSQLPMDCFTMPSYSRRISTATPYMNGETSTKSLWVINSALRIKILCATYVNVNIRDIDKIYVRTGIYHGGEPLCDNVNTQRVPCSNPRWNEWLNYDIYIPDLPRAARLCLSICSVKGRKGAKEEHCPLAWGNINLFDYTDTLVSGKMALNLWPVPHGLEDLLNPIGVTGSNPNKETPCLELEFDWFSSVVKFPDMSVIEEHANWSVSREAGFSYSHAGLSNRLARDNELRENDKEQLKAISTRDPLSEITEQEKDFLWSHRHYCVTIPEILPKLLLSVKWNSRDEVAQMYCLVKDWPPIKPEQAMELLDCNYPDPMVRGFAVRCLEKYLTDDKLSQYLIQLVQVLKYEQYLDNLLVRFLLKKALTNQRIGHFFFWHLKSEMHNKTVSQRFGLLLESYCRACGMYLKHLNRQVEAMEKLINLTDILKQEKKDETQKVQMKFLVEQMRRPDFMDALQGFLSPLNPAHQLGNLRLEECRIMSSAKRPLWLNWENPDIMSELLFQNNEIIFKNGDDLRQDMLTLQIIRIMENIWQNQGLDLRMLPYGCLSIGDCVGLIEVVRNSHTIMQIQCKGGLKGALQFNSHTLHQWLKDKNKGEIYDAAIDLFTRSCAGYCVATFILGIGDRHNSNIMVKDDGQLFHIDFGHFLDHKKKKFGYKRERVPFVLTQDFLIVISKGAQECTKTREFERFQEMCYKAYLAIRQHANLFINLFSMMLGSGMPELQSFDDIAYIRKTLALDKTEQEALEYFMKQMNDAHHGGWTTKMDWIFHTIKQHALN
T1 sequence (P27986 whole entry partner, species assumed): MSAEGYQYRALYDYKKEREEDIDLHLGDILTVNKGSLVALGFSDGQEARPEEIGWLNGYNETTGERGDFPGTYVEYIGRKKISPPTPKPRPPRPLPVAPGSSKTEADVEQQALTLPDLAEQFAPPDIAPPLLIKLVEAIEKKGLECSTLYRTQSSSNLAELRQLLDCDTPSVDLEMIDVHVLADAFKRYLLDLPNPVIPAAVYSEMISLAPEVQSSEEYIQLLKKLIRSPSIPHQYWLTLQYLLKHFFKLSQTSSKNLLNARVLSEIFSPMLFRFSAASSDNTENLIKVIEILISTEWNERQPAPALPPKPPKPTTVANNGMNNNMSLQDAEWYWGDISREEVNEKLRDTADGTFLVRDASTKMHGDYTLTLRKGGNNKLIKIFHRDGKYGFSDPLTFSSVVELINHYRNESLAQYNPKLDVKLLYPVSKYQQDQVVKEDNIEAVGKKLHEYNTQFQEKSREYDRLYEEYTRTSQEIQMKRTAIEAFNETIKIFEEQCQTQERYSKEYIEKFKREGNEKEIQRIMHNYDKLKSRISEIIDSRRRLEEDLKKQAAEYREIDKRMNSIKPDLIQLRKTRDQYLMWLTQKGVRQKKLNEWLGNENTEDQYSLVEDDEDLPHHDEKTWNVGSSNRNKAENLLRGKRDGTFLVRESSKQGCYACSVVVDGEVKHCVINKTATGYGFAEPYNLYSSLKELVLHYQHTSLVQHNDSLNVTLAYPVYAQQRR
T2 sequence (P42338 whole entry): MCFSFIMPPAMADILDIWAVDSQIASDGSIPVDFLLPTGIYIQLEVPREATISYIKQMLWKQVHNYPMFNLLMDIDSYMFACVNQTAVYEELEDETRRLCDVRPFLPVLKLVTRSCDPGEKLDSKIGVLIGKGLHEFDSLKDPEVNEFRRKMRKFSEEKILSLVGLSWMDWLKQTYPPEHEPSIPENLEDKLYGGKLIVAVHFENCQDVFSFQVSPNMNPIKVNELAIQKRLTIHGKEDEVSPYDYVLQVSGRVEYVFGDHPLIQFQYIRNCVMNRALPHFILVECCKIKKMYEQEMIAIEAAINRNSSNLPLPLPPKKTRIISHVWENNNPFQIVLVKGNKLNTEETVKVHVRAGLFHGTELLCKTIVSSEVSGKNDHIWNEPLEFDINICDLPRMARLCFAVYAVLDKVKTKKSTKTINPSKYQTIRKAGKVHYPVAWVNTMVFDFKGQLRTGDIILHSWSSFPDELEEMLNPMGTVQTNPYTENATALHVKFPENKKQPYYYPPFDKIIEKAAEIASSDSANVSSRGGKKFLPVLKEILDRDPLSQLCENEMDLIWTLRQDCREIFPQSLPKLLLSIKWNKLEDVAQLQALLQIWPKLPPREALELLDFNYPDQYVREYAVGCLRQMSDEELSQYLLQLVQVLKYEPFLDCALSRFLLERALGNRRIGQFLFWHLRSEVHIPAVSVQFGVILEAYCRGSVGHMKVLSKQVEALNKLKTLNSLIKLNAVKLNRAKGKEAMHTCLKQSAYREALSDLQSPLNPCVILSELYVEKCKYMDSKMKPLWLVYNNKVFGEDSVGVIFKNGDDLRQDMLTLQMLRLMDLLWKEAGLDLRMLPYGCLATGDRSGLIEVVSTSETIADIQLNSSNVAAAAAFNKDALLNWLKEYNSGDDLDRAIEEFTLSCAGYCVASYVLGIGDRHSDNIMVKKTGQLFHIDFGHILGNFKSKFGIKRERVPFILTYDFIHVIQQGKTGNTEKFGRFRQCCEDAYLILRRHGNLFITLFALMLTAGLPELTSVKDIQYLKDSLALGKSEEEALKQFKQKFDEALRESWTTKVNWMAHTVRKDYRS
T2 sequence (P27986 whole entry partner): as the sequence (P27986 whole entry partner, species assumed) above

Row | SMILES | IC50 (PI3K α) | IC50 (PI3K β) | IC50 [1]
1 | CNc1nc2ccc(-c3cnc(Cl)c(NS(=O)(=O)c4c(C)cccc4Cl)c3)cc2s1 [Example 318, 2-chloro-N-(2-chloro-5-(2-(methylamino)-1,3-benzothiazol-6-yl)-3-pyridinyl)-6-methylbenzenesulfonamide] | 11.2 nM | 42.3 nM | 329 nM
2 | CC(=O)Nc1nc2ccc(-c3ccnc(OCc4ccncc4)n3)cc2s1 [Example 17, N-(6-(2-(4-pyridinylmethoxy)-4-pyrimidinyl)-1,3-benzothiazol-2-yl)acetamide] | 523 nM | 11100 nM | 1060 nM
3 | CC(=O)Nc1nc2ccc(-c3cncc(NS(=O)(=O)c4ccc(C)cc4)c3)cc2s1 [Example 194, N-(6-(5-(4-methylphenylsulfonamido)pyridin-3-yl)benzo[d]thiazol-2-yl)acetamide] | 9.8 nM | 25.5 nM | 27.6 nM
4 | CC(=O)c1ccc(S(=O)(=O)Nc2cc(-c3ccc4nc(N)sc4c3)cnc2Cl)cc1 [Example 325, 4-acetyl-N-(5-(2-amino-1,3-benzothiazol-6-yl)-2-chloro-3-pyridinyl)benzenesulfonamide] | 18 nM | 20.6 nM | 468 nM
5 | COc1ccc(S(=O)(=O)Nc2nccc(-c3cc(F)c4nc(NC(C)=O)sc4c3)n2)cc1 [Example 131, N-(4-fluoro-6-(2-(((4-methoxyphenyl)sulfonyl)amino)-4-pyrimidinyl)-1,3-benzothiazol-2-yl)acetamide] | 41.3 nM | 126 nM | 1800 nM
6 | COc1ccc(Sc2nccc(-c3ccc4nc(NC(C)=O)sc4c3)n2)c(C)c1 [Example 27, N-(6-(2-((4-methoxy-2-methylphenyl)sulfanyl)-4-pyrimidinyl)-1,3-benzothiazol-2-yl)acetamide] | 40 nM | 201 nM | 594 nM
7 | COc1ccc(Sc2nccc(-c3ccc4nc(NC(C)=O)sc4c3)n2)cc1 [Example 16, N-(6-(2-(4-Methoxyphenylthio)pyrimidin-4-yl)benzo[d]thiazol-2-yl)acetamide] | 53.5 nM | 106 nM | 825 nM
8 | CC(=O)Nc1nc2ccc(-c3ccnc(Sc4ccccc4Br)n3)cc2s1 [Example 134, N-(6-(2-((2-bromophenyl)sulfanyl)-4-pyrimidinyl)-1,3-benzothiazol-2-yl)acetamide] | 47 nM | 668 nM | 1220 nM
9 | CC(=O)Nc1nc2ccc(-c3cnc(Cl)c(O[C@H]4CCOC4)c3)cc2s1 [Example 236, N-(6-(6-chloro-5-((S)-tetrahydrofuran-3-yloxy)pyridin-3-yl)benzo[d]thiazol-2-yl)acetamide] | 150 nM | 1370 nM | 828 nM
10 | CC(=O)Nc1nc2ccc(-c3cncc(N(C)S(=O)(=O)c4ccc(C(C)(C)C)cc4)c3)cc2s1 [Example 223, N-(6-(5-(4-tert-butyl-N-methylphenylsulfonamido)pyridin-3-yl)benzo[d]thiazol-2-yl)acetamide] | 53.5 nM | 3820 nM | 417 nM
11 | CC(=O)Nc1nc2ccc(-c3ccnc(N(C)S(=O)(=O)c4ccc(C)c(C)c4)n3)cc2s1 [Example 210, N-(6-(2-(N,3,4-trimethylphenylsulfonamido)pyrimidin-4-yl)benzo[d]thiazol-2-yl)acetamide] | 14.7 nM | 39.1 nM | 59.3 nM
12 | CCOc1cc(-c2ccc3nc(NC(C)=O)sc3c2)cnc1Cl [Example 239, N-(6-(6-chloro-5-ethoxypyridin-3-yl)benzo[d]thiazol-2-yl)acetamide] | 53.8 nM | 3790 nM | 2960 nM
13 | CC(=O)Nc1nc2ccc(-c3ccnc(N(C)S(=O)(=O)c4ccc5ccccc5c4)n3)cc2s1 [Example 214, N-(6-(2-(N-methylnaphthalene-2-sulfonamido)pyrimidin-4-yl)benzo[d]thiazol-2-yl)acetamide] | 74 nM | 86.2 nM | 256 nM
14 | CN(C)c1cc(-c2ccc3nc(NC(=O)COc4ccccc4)sc3c2)cnc1Cl [Example 272, N-(6-(6-chloro-5-(dimethylamino)pyridin-3-yl)benzo[d]thiazol-2-yl)-2-phenoxyacetamide] | 58.9 nM | 1450 nM | > 5000 nM
15 | COc1ccc(S(=O)(=O)N(C)c2nccc(-c3cc(F)c4nc(NC(C)=O)sc4c3)n2)cc1 [Example 143, N-(4-fluoro-6-(2-(((4-methoxyphenyl)sulfonyl)(methyl)amino)-4-pyrimidinyl)-1,3-benzothiazol-2-yl)acetamide] | 111 nM | 109 nM | 328 nM
16 | COCC(=O)Nc1nc2ccc(-c3cnc(Cl)c(NC(C)C)c3)cc2s1 [Example 144, N-(6-(6-chloro-5-((1-methylethyl)amino)-3-pyridinyl)-1,3-benzothiazol-2-yl)-2-methoxyacetamide] | 112 nM | 1570 nM | 723 nM
17 | CC(=O)Nc1nc2ccc(-c3ccnc(NS(=O)(=O)c4ccccc4)n3)cc2s1 [Example 77, N-(6-(2-(Phenylsulfonamido)pyrimidin-4-yl)benzo[d]thiazol-2-yl)acetamide] | 84.8 nM | 543 nM | 2350 nM
18 | CC(=O)Nc1nc2ccc(-c3ccnc(Sc4ccccc4Cl)n3)cc2s1 [Example 125, N-(6-(2-((2-chlorophenyl)sulfanyl)-4-pyrimidinyl)-1,3-benzothiazol-2-yl)acetamide] | 25.4 nM | 425 nM | 548 nM
19 | CC(=O)Nc1nc2ccc(-c3ccnc(Sc4ccc(F)cc4)n3)cc2s1 [Example 26, N-(6-(2-((4-fluorophenyl)sulfanyl)-4-pyrimidinyl)-1,3-benzothiazol-2-yl)acetamide] | 122 nM | 407 nM | 1020 nM
20 | COc1ccc(S(=O)(=O)Nc2cc(-c3ccc4nc(NC(C)=O)sc4c3)cnc2C#N)cc1 [Example 267, N-(6-(6-cyano-5-(4-methoxyphenylsulfonamido)pyridin-3-yl)benzo[d]thiazol-2-yl)acetamide] | 14.5 nM | 20.9 nM | 1430 nM
21 | CC(=O)Nc1nc2ccc(-c3ccnc(NS(=O)(=O)c4ccc(C)cc4)n3)cc2s1 [Example 83, N-(6-(2-(((4-methylphenyl)sulfonyl)amino)-4-pyrimidinyl)-1,3-benzothiazol-2-yl)acetamide] | 34.3 nM | 62 nM | 408 nM
22 | CC(=O)Nc1nc2ccc(-c3ccnc(O[C@H](C)c4ccccc4)n3)cc2s1 [Example 43, N-(6-(2-((1R)-1-phenylethoxy)-4-pyrimidinyl)-1,3-benzothiazol-2-yl)acetamide] | 104 nM | 517 nM | 1060 nM
23 | CC(=O)Nc1nc2ccc(-c3cnc(Cl)c(OC(C)=O)c3)cc2s1 [Example 303, 5-(2-acetamidobenzo[d]thiazol-6-yl)-2-chloropyridin-3-yl acetate] | 2 nM | 12.2 nM | 1.7 nM
